Laboratory results: ChEMBL document CHEMBL1649229, “Efficacy of high doses of daptomycin versus alternative therapies against experimental foreign-body infection by methicillin-resistant Staphylococcus aureus” (Antimicrob Agents Chemother, 2009)
Values after ≈ are worked out from the molar mass of the structure shown. Active and inactive are the calls of the source. The rule behind the calls is not given here.

What was measured:
Staphylococcus aureus [1] = assay: Antimicrobial activity against log-phase methicillin-resistant Staphylococcus aureus HUSA 304 assessed as resistant bacteria in tissue cage fluid selected on 1 to 5 ug/ml of compound measured on day 11 post treatment in presence of 50 mg/L calcium ions; assay type: functional, organism-based
Staphylococcus aureus [2] = assay: Antimicrobial activity against log-phase methicillin-resistant Staphylococcus aureus HUSA 304 assessed as resistant bacteria on coverslip selected on 1 to 5 ug/ml of compound measured on day 11 post treatment in presence of 50 mg/L calcium ions; assay type: functional, organism-based
Staphylococcus aureus [3] = assay: Antimicrobial activity against log-phase methicillin-resistant Staphylococcus aureus HUSA 304 by M7-A6 method in presence of 50 mg/L calcium ions; assay type: functional
Staphylococcus aureus [4] = assay: Bactericidal activity against log-phase methicillin-resistant Staphylococcus aureus HUSA 304 after 24 hrs by time kill analysis; assay type: functional; conditions: HUSA 304, 24 h
Staphylococcus aureus [5] = assay: Bactericidal activity against stationary-phase methicillin-resistant Staphylococcus aureus HUSA 304 after 24 hrs by time kill analysis; assay type: functional; conditions: HUSA 304, 24 h
[6] = Cmax in tissue cage fluid of Wistar rat infected with methicillin-resistant Staphylococcus aureus HUSA 304 at 45 mg/kg/day, ip; assay type: ADME, organism-based, Interstitial fluid; parameters: dose 45 mg/kg/day, route intraperitoneal
[7] = Cmax in tissue cage fluid of Wistar rat infected with methicillin-resistant Staphylococcus aureus HUSA 304 at 70 mg/kg/day, ip; assay type: ADME, organism-based, Interstitial fluid; parameters: dose 70 mg/kg/day, route intraperitoneal
[8] = Cmax in tissue cage fluid of Wistar rat infected with methicillin-resistant Staphylococcus aureus HUSA 304 at 100 mg/kg/day, ip; assay type: ADME, organism-based, Interstitial fluid; parameters: dose 100 mg/kg/day, route intraperitoneal
[9] = AUC (0 to infinity) in tissue cage fluid of Wistar rat infected with methicillin-resistant Staphylococcus aureus HUSA 304 at 45 mg/kg/day, ip; assay type: ADME, organism-based; parameters: dose 45 mg/kg/day, time infinity, route intraperitoneal
[10] = AUC (0 to infinity) in tissue cage fluid of Wistar rat infected with methicillin-resistant Staphylococcus aureus HUSA 304 at 70 mg/kg/day, ip; assay type: ADME, organism-based; parameters: dose 70 mg/kg/day, time infinity, route intraperitoneal
[11] = AUC (0 to infinity) in tissue cage fluid of Wistar rat infected with methicillin-resistant Staphylococcus aureus HUSA 304 at 100 mg/kg/day, ip; assay type: ADME, organism-based; parameters: dose 100 mg/kg/day, time infinity, route intraperitoneal
[12] = Ratio of Cmax in tissue cage fluid of Wistar rat infected with methicillin-resistant Staphylococcus aureus HUSA 304 at 45 mg/kg/day, ip to MIC for methicillin-resistant Staphylococcus aureus HUSA 304; assay type: functional; conditions: route intraperitoneal
[13] = Ratio of Cmax in tissue cage fluid of Wistar rat infected with methicillin-resistant Staphylococcus aureus HUSA 304 at 70 mg/kg/day, ip to MIC for methicillin-resistant Staphylococcus aureus HUSA 304; assay type: functional; conditions: route intraperitoneal
[14] = Ratio of Cmax in tissue cage fluid of Wistar rat infected with methicillin-resistant Staphylococcus aureus HUSA 304 at 100 mg/kg/day, ip to MIC for methicillin-resistant Staphylococcus aureus HUSA 304; assay type: functional; conditions: route intraperitoneal
[15] = Ratio of AUC (0 to infinity) in tissue cage fluid of Wistar rat infected with methicillin-resistant Staphylococcus aureus HUSA 304 at 45 mg/kg/day, ip to MIC for methicillin-resistant Staphylococcus aureus HUSA 304; assay type: functional; conditions: route intraperitoneal
[16] = Ratio of AUC (0 to infinity) in tissue cage fluid of Wistar rat infected with methicillin-resistant Staphylococcus aureus HUSA 304 at 70 mg/kg/day, ip to MIC for methicillin-resistant Staphylococcus aureus HUSA 304; assay type: functional; conditions: route intraperitoneal
[17] = Ratio of AUC (0 to infinity) in tissue cage fluid of Wistar rat infected with methicillin-resistant Staphylococcus aureus HUSA 304 at 100 mg/kg/day, ip to MIC for methicillin-resistant Staphylococcus aureus HUSA 304; assay type: functional; conditions: route intraperitoneal
[18] = fT>MIC in methicillin-resistant Staphylococcus aureus HU 304 infected in Wistar rat at 45 mg/kg/day, ip for 7 days; assay type: functional; conditions: route intraperitoneal
[19] = fT>MIC in methicillin-resistant Staphylococcus aureus HU 304 infected in Wistar rat at 70 mg/kg/day, ip for 7 days; assay type: functional; conditions: route intraperitoneal
[20] = fT>MIC in methicillin-resistant Staphylococcus aureus HU 304 infected in Wistar rat at 100 mg/kg/day, ip for 7 days; assay type: functional; conditions: route intraperitoneal
[21] = Cmax in serum of Wistar rat infected with methicillin-resistant Staphylococcus aureus HUSA 304 at 45 mg/kg/day, ip for 7 days; assay type: ADME, organism-based; parameters: dose 45 mg/kg/day, route intraperitoneal
[22] = Cmax in serum of Wistar rat infected with methicillin-resistant Staphylococcus aureus HUSA 304 at 70 mg/kg/day, ip for 7 days; assay type: ADME, organism-based; parameters: dose 70 mg/kg/day, route intraperitoneal
[23] = Cmax in serum of Wistar rat infected with methicillin-resistant Staphylococcus aureus HUSA 304 at 100 mg/kg/day, ip for 7 days; assay type: ADME, organism-based; parameters: dose 100 mg/kg/day, route intraperitoneal
[24] = Cmax in serum of human infected with methicillin-resistant Staphylococcus aureus HUSA 304 at 6 mg/kg/day, […]; assay type: ADME, organism-based; parameters: dose 6 mg/kg/day
[25] = Cmax in serum of human infected with methicillin-resistant Staphylococcus aureus HUSA 304 at 8 mg/kg/day, […]; assay type: ADME, organism-based; parameters: dose 8 mg/kg/day, route intraperitoneal
[26] = Cmax in serum of human infected with methicillin-resistant Staphylococcus aureus HUSA 304 at 10 mg/kg/day, […]; assay type: ADME, organism-based; parameters: dose 10 mg/kg/day, route intraperitoneal
[27] = AUC (0 to infinity) in serum of Wistar rat infected with methicillin-resistant Staphylococcus aureus HUSA 304 at 45 mg/kg/day, ip for 7 days; assay type: ADME, organism-based; parameters: dose 45 mg/kg/day, time infinity, route intraperitoneal
[28] = AUC (0 to infinity) in serum of Wistar rat infected with methicillin-resistant Staphylococcus aureus HUSA 304 at 70 mg/kg/day, ip for 7 days; assay type: ADME, organism-based; parameters: dose 70 mg/kg/day, time infinity, route intraperitoneal
[29] = AUC (0 to infinity) in serum of Wistar rat infected with methicillin-resistant Staphylococcus aureus HUSA 304 at 100 mg/kg/day, ip for 7 days; assay type: ADME, organism-based; parameters: dose 100 mg/kg/day, time infinity, route intraperitoneal
[30] = AUC (0 to 24 hrs) in serum of human infected with methicillin-resistant Staphylococcus aureus HUSA 304 at 6 mg/kg/day, […]; assay type: ADME, organism-based; parameters: time < 24 hr, dose 6 mg/kg/day
[31] = AUC (0 to 24 hrs) in serum of human infected with methicillin-resistant Staphylococcus aureus HUSA 304 at 8 mg/kg/day, […]; assay type: ADME, organism-based; parameters: dose 8 mg/kg/day, time < 24 hr
[32] = AUC (0 to 24 hrs) in serum of human infected with methicillin-resistant Staphylococcus aureus HUSA 304 at 10 mg/kg/day, […]; assay type: ADME, organism-based; parameters: dose 10 mg/kg/day, time < 24 hr
Staphylococcus aureus [33] = assay: Antimicrobial activity against methicillin-resistant Staphylococcus aureus HUSA 304 infected in Wistar rat assessed as decrease in bacterial load in tissue cage fluid at 100 mg/kg/day, ip administered for 7 days measured on day 8 post treatment in presence of 50 mg/L calcium ions; assay type: functional; conditions: route intraperitoneal
Staphylococcus aureus [34] = assay: Antimicrobial activity against methicillin-resistant Staphylococcus aureus HUSA 304 infected in Wistar rat assessed as decrease in bacterial load in tissue cage fluid at 100 mg/kg/day, ip administered for 7 days measured on day 11 post treatment in presence of 50 mg/L calcium ions; assay type: functional; conditions: route intraperitoneal
Staphylococcus aureus [35] = assay: Antimicrobial activity against log-phase methicillin-resistant Staphylococcus aureus HUSA 304 selected on 1 to 5 ug/ml of compound measured after 5 days by M7-A6 method in presence of 50 mg/L calcium ions; assay type: functional; conditions: HUSA 304, 120 h
Staphylococcus aureus [36] = assay: Antimicrobial activity against log-phase methicillin-resistant Staphylococcus aureus HUSA 304 assessed as resistant bacteria in tissue cage fluid selected on 1 to 5 ug/ml of compound measured on day 8 post treatment in presence of 50 mg/L calcium ions; assay type: functional, organism-based
Staphylococcus aureus [37] = assay: Antimicrobial activity against log-phase methicillin-resistant Staphylococcus aureus HUSA 304 by M7-A6 method; assay type: functional
Staphylococcus aureus [38] = assay: Bactericidal activity against log-phase methicillin-resistant Staphylococcus aureus HUSA 304 after 24 hrs by time kill analysis in presence of 50 mg/L calcium ions; assay type: functional; conditions: HUSA 304, 24 h
Staphylococcus aureus [39] = assay: Bactericidal activity against stationary-phase methicillin-resistant Staphylococcus aureus HUSA 304 after 24 hrs by time kill analysis in presence of 50 mg/L calcium ions; assay type: functional; conditions: HUSA 304, 24 h
Staphylococcus aureus [40] = assay: Antimicrobial activity against methicillin-resistant Staphylococcus aureus HUSA 304 infected in Wistar rat assessed as decrease in bacterial load in tissue cage fluid at 35 mg/kg, ip administered every 12 hrs for 7 days measured on day 8 post treatment; assay type: functional; conditions: route intraperitoneal
Staphylococcus aureus [41] = assay: Antimicrobial activity against methicillin-resistant Staphylococcus aureus HUSA 304 infected in Wistar rat assessed as decrease in bacterial load in tissue cage fluid at 35 mg/kg, ip administered every 12 hrs for 7 days measured on day 11 post treatment; assay type: functional; conditions: route intraperitoneal

## CCCCCCCCCC(=O)N[C@@H](Cc1c[nH]c2ccccc12)C(=O)N[C@H](CC(N)=O)C(=O)N[C@@H](CC(=O)O)C(=O)N[C@@H]1C(=O)NCC(=O)N[C@@H](CCCN)C(=O)N[C@@H](CC(=O)O)C(=O)N[C@H](C)C(=O)N[C@@H](CC(=O)O)C(=O)NCC(=O)N[C@H](CO)C(=O)N[C@@H]([C@H](C)CC(=O)O)C(=O)N[C@@H](CC(=O)c2ccccc2N)C(=O)O[C@@H]1C
Staphylococcus aureus [1]
  Activity: Active
Staphylococcus aureus [2]
  Activity: Active
Staphylococcus aureus [3]
  MIC: 1 µg/mL
Staphylococcus aureus [4]
  MBC: 4 µg/mL (≈ 2.47 µM)
Staphylococcus aureus [5]
  MBC: 24 µg/mL (≈ 14.8 µM)
[6]
  Cmax: 26000 ng/mL
[7]
  Cmax: 34000 ng/mL
[8]
  Cmax: 40000 ng/mL
[9]
  AUC(0-inf): 795 µg·h/mL
[10]
  AUC(0-inf): 953 µg·h/mL
[11]
  AUC(0-inf): 1100 µg·h/mL
[12]
  Ratio: 26
[13]
  Ratio: 34
[14]
  Ratio: 40
[15]
  RatioAUC/MIC: 795
[16]
  RatioAUC/MIC: 953
[17]
  RatioAUC/MIC: 1100
[18]
  fT>MIC: 100%
[19]
  fT>MIC: 100%
[20]
  fT>MIC: 100%
[21]
  Cmax: 103 µg/mL
[22]
  Cmax: 128 µg/mL
[23]
  Cmax: 140 µg/mL
[24]
  Cmax: 95 µg/mL
[25]
  Cmax: 106 µg/mL
[26]
  Cmax: 130 µg/mL
[27]
  AUC(0-inf): 830 µg·h/mL
[28]
  AUC(0-inf): 984 µg·h/mL
[29]
  AUC(0-inf): 1200 µg·h/mL
[30]
  AUC at 24 h: 730 µg·h/mL
[31]
  AUC at 24 h: 773 µg·h/mL
[32]
  AUC at 24 h: 1010 µg·h/mL
Staphylococcus aureus [33]
  log10cfu: 2.26
Staphylococcus aureus [34]
  log10cfu: 2.57
Staphylococcus aureus [35]
  MIC: 1 µg/mL
Staphylococcus aureus [36]
  Activity: Active

## CO[C@H]1/C=C/O[C@@]2(C)Oc3c(C)c(O)c4c(O)c(c(/C=N/N5CCN(C)CC5)c(O)c4c3C2=O)NC(=O)/C(C)=C\C=C\[C@H](C)[C@H](O)[C@@H](C)[C@@H](O)[C@@H](C)[C@H](OC(C)=O)[C@@H]1C [RIFAMPIN]
Staphylococcus aureus [37]
  MIC: 0.03 µg/mL (≈ 0.0365 µM)
Staphylococcus aureus [38]
  MBC: 0.5 µg/mL
Staphylococcus aureus [39]
  MBC: > 8 µg/mL
Staphylococcus aureus [40]
  log10cfu: 1.36
Staphylococcus aureus [41]
  log10cfu: 1.1
